Measurements: article PMC4510645, “Discovery of intramolecular trans-sialidases in human gut microbiota suggests novel mechanisms of mucosal adaptation” (Nature Communications, 2015)
Several values for one entry are separate records, joined by “and”; a condition that tells them apart may be missing. Equal entries are not always repeated. Where two headings read alike, the source gives them in different places.

Columns and labels:
[1] = system: AkmNan0625 and AkmNan1835; test: Specificity against sialyl-oligosaccharides, HPAEC-PAD (control sialidases); type: biochemical, Akkermansia muciniphila; set-up: key to Activity AkmNan0625 and AkmNan1835: +: Activity was defined as disappearance of the substrate peak and appearance of a lower-molecular weight peak, which could correspond to the desialylated substrate; details: substrate 1 mM, 1 nM enzyme, 37 °C, pH 6.5, overnight
Method: (§1) Figure 2 Specificity of RgNanH towards sialylated oligosaccharides. The enzymes were incubated with sialylated substrates at 37 °C, pH 6.5, overnight and the reaction products were analysed by HPAEC-PAD. Control reactions without enzyme were also performed. The injection peak is marked (inj). Glycerol (gly) was also present in AkmNan0625. (a) Standards (Lac, Neu5Ac, 3′SL and 6′SL), (b) 3′SL, (c) 6′SL and (d) 3'-α-sialyl-N-acetyllactosamine (3′SLacNAc). AkmNan1835 has a similar profile to […].
All chemicals were obtained from Sigma (St Louis, USA) unless otherwise stated. The A. muciniphila sialidases, termed here AkmNan0625 and AkmNan1835, were obtained by His-Tag overexpression of their genes (Amuc_0625 and Amuc_1835, respectively)[56] in E. coli BL21(DE3) and subsequent purification to homogeneity by immobilized metal affinity chromatography as described below. The sialylated oligosaccharides and OC were obtained from Carbosynth (Berks, UK).
(§2) The purified enzymes were incubated with the substrate in buffer made from 20 mM Na2HPO4 and 20 mM NaH2PO4 adjusted to pH 6.5 containing 1 mg ml^−1 BSA at 37 °C unless otherwise stated. For 4MU-Neu5Ac, the progression of the reaction was monitored by the release of the MU using a 96-well plate reader (BMG Labtech, Ortenberg, Germany) using fluorescence with an excitation at 340 nm and an emission at 420 nm. For determining the optimal temperature, the assay was carried out in 20 mM PBS at pH 7.4. For determining the optimal pH, the assay was carried out at 37 °C using buffer made from 20 mM Na2HPO4 and 20 mM NaH2PO4 in varying proportions to obtain the desired pH. PNP release from PNP-Neu5Ac was monitored in a similar way measuring absorbance at 405 nm every 60 s. For 3′SL, the reaction was monitored by HPAEC-PAD. An aliquot of the reaction was removed from the main reaction volume at the reaction stopped by boiling for 20 min, the enzyme was then removed by centrifugation at 17,000g for 10 min and filtration with a 0.2-μm filter (Millipore, Billerica, USA). The sugars were separated by HPAEC with an isocratic gradient of 100 mM NaOH and 100 mM NaAC at 1 ml min^−1 on a CarboPac PA1 protected with a guard column and detected using PAD on a Dionex ICS5000 system (Thermo Scientific, Hemel Hempstead, UK). The column was cleaned with 10 ml of 500 mM NaOH and 500 mM NaAc, and the column was re-equilibrated with 100 mM NaOH and 100 mM NaAc. An internal standard of fucose was used to quantify the results.
(§3) For specificity tests against sialylated oligosaccharides (1 mM) and glycoproteins (1 mg ml^−1), 1 nM of enzyme was incubated with the substrate at 37 °C, pH 6.5, overnight.

RgNanH [2] = biological target: T1, RgNanH (Mediterraneibacter gnavus (Ruminococcus gnavus), UniProt A7B557); test: Specificity against sialyl-oligosaccharides, HPAEC-PAD; type: biochemical, Ruminococcus gnavus ATCC 29149; set-up: key to Activity RgNanH: +: Activity was defined as disappearance of the substrate peak and appearance of a lower-molecular weight peak, which could correspond to the desialylated substrate; details: substrate 1 mM, 1 nM enzyme, 37 °C, pH 6.5, overnight
T1 sequence (A7B557 26-723): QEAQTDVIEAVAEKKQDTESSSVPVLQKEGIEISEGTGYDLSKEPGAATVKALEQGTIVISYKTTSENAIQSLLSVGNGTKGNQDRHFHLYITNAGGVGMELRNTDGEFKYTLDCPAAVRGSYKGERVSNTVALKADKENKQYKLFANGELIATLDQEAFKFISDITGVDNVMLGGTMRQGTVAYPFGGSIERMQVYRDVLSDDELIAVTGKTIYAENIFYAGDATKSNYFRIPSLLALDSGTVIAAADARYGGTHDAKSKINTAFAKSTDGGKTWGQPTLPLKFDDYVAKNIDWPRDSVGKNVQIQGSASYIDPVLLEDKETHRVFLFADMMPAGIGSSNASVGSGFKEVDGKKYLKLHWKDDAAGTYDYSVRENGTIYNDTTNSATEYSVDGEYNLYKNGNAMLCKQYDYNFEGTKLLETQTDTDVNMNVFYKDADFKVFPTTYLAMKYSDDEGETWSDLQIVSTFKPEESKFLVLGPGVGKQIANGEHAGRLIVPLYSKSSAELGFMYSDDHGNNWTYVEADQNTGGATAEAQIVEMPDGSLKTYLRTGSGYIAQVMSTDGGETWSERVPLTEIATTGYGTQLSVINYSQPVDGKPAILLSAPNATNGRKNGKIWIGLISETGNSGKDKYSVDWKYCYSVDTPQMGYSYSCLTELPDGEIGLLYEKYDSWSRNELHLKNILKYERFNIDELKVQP
Method: as §1, §2, §3

RgNanH [3] = biological target: T1, RgNanH; test: Kinetic parameters of RgNanH with sialylated substrates; type: biochemical, Ruminococcus gnavus ATCC 29149; details: pH 6.5, 37 °C
Method: as §2
For 4MU-Neu5Ac and 3′SL, the rate of hydrolysis without enzyme was not significant, thus raw data were used. However, for pNP-Neu5Ac, the rate of hydrolysis without enzyme was significant, thus the rate with enzyme was corrected by the subtraction of the rate without enzyme at each concentration of substrate. For 3′SL, the rate of reaction was calculated by plotting the amount of substrate remaining over the course of >50 % of the reaction using the following equation[58]: […]
Where k is kcat/KM × enzyme concentration, t is time, [S0] and [St] are substrate concentrations at time 0 and t, respectively.
Kinetic data were obtained from at least duplicate (usually triplicate) experiments, and the kinetic parameters were calculated by fitting the initial raw data to the Michaelis–Menten equation using a nonlinear regression analysis programme (Prism 6, GraphPad, San Diego, USA), and error bars (s.e.m.) are shown.

RgNanH [4] = biological target: T1, RgNanH; test: Inhibition of RgNanH activity against 4MU-Neu5Ac by neuraminidase inhibitors; type: biochemical, Ruminococcus gnavus ATCC 29149; details: for LogIC50 / IC50: 4MU-Neu5Ac 0.51 mM, pre-incubated 15 min at 37 °C, pH 6.5
Method: Figure 1 Kinetic analysis of the hydrolysis of sialylated substrates by RgNanH in presence or absence of inhibitors. Substrate (a) 4MU-Neu5Ac or (b) PNP-Neu5Ac was incubated with RgNanH ([…] and 0.43 nM, respectively) at 37 °C, pH 6.5 and the release of product measured using a plate reader. (c) Inhibition of RgNanH (1.00 nM) incubated with 4MU-Neu5Ac (0.51 mM) by zanamivir (●), Neu5Ac2en (▪), siastatin B (▴) and OC (♦), the rates are normalized to a % of the uninhibited rate. [I] is the inhibitor concentration. (d) 3′SL was incubated with RgNanH (2.25 nM) and the release of product measured by HPAEC-PAD. Experiments were done at least in duplicate (usually triplicate) and the error bars show the s.e.m.
as §2, with “results. […]” for “results.”

| Compound | Activity AkmNan0625 and AkmNan1835 [1] | Activity RgNanH (RgNanH [2]) | LogIC50 (RgNanH [4]; RgNanH 1.00 nM) | IC50 (RgNanH [4]; RgNanH 1.00 nM, read-out: IC50) | other results |
| --- | --- | --- | --- | --- | --- |
| CO[C@@H]1O[C@H](CO)[C@@H](O[C@@H]2O[C@H](CO)[C@H](O)[C@H](O[C@]3(C(=O)O)C[C@H](O)[C@@H](NC(C)=O)[C@H]([C@H](O)[C@H](O)CO)O3)[C@H]2O)[C@H](O[C@@H]2O[C@@H](C)[C@@H](O)[C@@H](O)[C@@H]2O)[C@H]1NC(C)=O [3′-Sialyl Lewis X methyl glycoside, Neu5Ac-α-2-3-Gal-β-1-4-[Fuc-a-1-3]-GlcNAc-β-OMe] | + | + | – | – | – |
| CC(=O)N[C@H]1[C@H]([C@H](O)[C@H](O)CO)O[C@@](O[C@H]2[C@@H](O)[C@@H](CO)O[C@@H](O[C@H]3[C@H](O[C@@H]4O[C@@H](C)[C@@H](O)[C@@H](O)[C@@H]4O)[C@@H](NC(C)=O)C(O)O[C@@H]3CO)[C@@H]2O)(C(=O)O)C[C@@H]1O (stereo partly drawn) [3′-Sialyl Lewis X, Neu5Ac-α-2-3-Gal-β-1-4-[Fuc-a-1-3]-GlcNAc] | + | + | – | – | – |
| CC(=O)N[C@H]1[C@H]([C@H](O)[C@H](O)CO)O[C@@](O[C@H]2[C@@H](O)[C@@H](CO)O[C@@H](O[C@H]3[C@H](O[C@@H]4O[C@@H](C)[C@@H](O)[C@@H](O)[C@@H]4O)[C@@H](O)C(O)O[C@@H]3CO)[C@@H]2O)(C(=O)O)C[C@@H]1O (stereo partly drawn) [3′-Sialyl-3-fucosyllactose, Neu5Ac-α-2-3-Gal-β1-4-[Fuc-α-1-3]-Glc] | + | + | – | – | – |
| CC(=O)NC1C(O)CC(OC2C(O)C(O)OC(CO)C2O)(C(=O)O)OC1C(O)C(O)CO (stereo not drawn) [3′-Sialylgalactose, Neu5Ac-α-2-3-Gal] | + | + | – | – | – |
| CC(=O)N[C@@H]1[C@@H](O)C[C@](Oc2ccc3c(C)cc(=O)oc3c2)(C(=O)O)O[C@H]1C(O)[C@H](O)CO (stereo partly drawn) [4MU-Neu5Ac, 2′-(4-methylumbelliferyl)-α-D-N-acetylneuraminic acid] | – | – | – | – | Ki (RgNanH [3]; substrate inhibition, s.e.m.): 2370 ± 650 µM; kcat (RgNanH [3]; substrate of RgNanH): 6210 min⁻¹; Km (RgNanH [3]; substrate of RgNanH, s.e.m.): 590 ± 170 µM; Vmax (RgNanH [3]; substrate of RgNanH, s.e.m.): 1.37 ± 0.23 µM/min |
| CC(=O)N[C@H]1[C@H]([C@H](O)[C@H](O)CO)OC(OC[C@H]2OC(O)[C@H](O)[C@@H](O)[C@H]2O)(C(=O)O)C[C@@H]1O (stereo partly drawn) [6′-Sialylgalactose, Neu5Ac-α-2-6-Gal] | + | – | – | – | – |
| CC(=O)N[C@H]1[C@H]([C@H](O)[C@H](O)CO)OC(C(=O)O)=C[C@@H]1O [Neu5Ac2en, 2-deoxy-2,3-didehydro-D-N-acetylneuraminic acid] | – | – | 0.15±0.04 | 1400 µM and 1410 µM | – |
| CCC(CC)O[C@@H]1C=C(C(=O)O)C[C@H](N)[C@H]1NC(C)=O [Oseltamivir carboxylate] | – | – | −1.53±0.02 | 29.6 µM | improvement in inhibition of RgNanH (RgNanH [4]; compared with Neu5Ac2en (IC50: 1.4 mM to 30 μM)): ~50 fold |
| CC(=O)N[C@H]1[C@H]([C@H](O)[C@H](O)CO)O[C@@](Oc2ccc([N+](=O)[O-])cc2)(C(=O)O)C[C@@H]1O [PNP-Neu5Ac, 2-O-(p-nitrophenyl)-α-D-N-acetylneuraminic acid] | – | – | – | – | kcat (RgNanH [3]; substrate of RgNanH): <152 ^* min^−1; Km (RgNanH [3]; substrate of RgNanH, s.e.m.): > 25000 µM |
| CC(=O)N[C@H]1NC[C@H](C(=O)O)[C@H](O)[C@@H]1O [Siastatin B] | – | – | −2.31±0.02 | 4.87 µM | – |
| CC(=O)N[C@H]1[C@H]([C@H](O)[C@H](O)CO)OC(C(=O)O)=C[C@@H]1N=C(N)N [Zanamivir, 4-guanidino-Neu5Ac2en] | – | – | 1.08±0.07 | 11900 µM | IC50 (RgNanH [4]; IC50, RgNanH 1.00 nM): ~12000 µM |
| Neu5Ac-α-2-3-Gal-β-1-4-GlcNAc [3′-α-Sialyl-N-acetyllactosamine] | + | + | – | – | – |
| Neu5Ac-α-2-6-Gal-β-1-4-GlcNAc [6′-α-Sialyl-N-acetyllactosamine] | + | – | – | – | – |
